molecular target: CDK12 complexed with Cyclin K (Homo sapiens (Human), UniProt Q9NYV4); test: CDK enzymatic assay (HTRF, LANCE Ultra kinase assay); type: biochemical; conditions: 60 minutes pre-incubation, 1 mM ATP
Method in brief: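 GST-tagged human CDK12 co-expressed with full-length Cyclin K in baculovirus, pre-incubated 60 min with compound, then 1 mM ATP and 50 nM ULight-4E-BP1 peptide (final) in pH 7.5 HEPES buffer for 60-90 min at room temperature. EDTA/Eu-anti-phospho-4E-BP1 stop; 665/620 nm HTRF ratio normalized to DMSO and no-enzyme controls, IC50 from 3- or 4-parameter fit.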

Sequence of CDK12 complexed with Cyclin K (Q9NYV4 whole entry): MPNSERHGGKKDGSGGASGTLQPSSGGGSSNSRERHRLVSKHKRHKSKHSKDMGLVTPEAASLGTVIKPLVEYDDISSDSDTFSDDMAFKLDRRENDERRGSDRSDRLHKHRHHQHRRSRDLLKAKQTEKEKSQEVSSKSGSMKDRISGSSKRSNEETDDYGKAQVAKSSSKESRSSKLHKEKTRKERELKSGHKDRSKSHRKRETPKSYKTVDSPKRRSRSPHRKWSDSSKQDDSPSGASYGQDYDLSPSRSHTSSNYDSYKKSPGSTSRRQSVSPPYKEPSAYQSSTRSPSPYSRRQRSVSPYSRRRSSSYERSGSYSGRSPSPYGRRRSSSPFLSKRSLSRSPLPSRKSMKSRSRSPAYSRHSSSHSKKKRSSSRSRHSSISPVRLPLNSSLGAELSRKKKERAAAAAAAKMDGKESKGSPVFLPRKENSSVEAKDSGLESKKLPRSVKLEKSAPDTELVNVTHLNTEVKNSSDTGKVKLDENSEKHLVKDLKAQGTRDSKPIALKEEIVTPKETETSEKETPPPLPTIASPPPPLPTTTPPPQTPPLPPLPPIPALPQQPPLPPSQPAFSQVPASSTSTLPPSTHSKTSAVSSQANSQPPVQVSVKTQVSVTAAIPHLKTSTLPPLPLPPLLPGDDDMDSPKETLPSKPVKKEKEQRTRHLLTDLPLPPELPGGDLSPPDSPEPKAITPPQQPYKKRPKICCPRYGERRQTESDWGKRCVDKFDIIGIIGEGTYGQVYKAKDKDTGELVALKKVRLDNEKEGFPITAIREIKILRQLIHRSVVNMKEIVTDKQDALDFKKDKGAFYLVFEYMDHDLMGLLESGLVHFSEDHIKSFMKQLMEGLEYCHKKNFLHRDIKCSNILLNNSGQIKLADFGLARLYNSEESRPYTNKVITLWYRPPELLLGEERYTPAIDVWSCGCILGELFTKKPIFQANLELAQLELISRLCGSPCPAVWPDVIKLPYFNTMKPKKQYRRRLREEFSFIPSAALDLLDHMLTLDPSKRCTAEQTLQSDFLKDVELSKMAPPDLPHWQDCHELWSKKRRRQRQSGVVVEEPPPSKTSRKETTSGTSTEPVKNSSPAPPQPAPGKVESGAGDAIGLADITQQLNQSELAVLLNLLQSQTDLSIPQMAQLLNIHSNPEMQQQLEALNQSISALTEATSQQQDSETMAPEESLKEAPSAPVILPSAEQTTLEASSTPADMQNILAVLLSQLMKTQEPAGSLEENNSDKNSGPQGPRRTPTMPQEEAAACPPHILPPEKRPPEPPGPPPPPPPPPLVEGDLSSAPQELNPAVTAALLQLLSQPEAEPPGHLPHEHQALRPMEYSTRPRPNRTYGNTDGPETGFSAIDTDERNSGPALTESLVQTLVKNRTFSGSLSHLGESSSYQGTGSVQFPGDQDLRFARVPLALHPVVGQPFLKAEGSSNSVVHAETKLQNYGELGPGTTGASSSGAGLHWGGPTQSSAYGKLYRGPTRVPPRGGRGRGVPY
Sequence of CDK12 complexed with Cyclin K (O75909 whole entry partner): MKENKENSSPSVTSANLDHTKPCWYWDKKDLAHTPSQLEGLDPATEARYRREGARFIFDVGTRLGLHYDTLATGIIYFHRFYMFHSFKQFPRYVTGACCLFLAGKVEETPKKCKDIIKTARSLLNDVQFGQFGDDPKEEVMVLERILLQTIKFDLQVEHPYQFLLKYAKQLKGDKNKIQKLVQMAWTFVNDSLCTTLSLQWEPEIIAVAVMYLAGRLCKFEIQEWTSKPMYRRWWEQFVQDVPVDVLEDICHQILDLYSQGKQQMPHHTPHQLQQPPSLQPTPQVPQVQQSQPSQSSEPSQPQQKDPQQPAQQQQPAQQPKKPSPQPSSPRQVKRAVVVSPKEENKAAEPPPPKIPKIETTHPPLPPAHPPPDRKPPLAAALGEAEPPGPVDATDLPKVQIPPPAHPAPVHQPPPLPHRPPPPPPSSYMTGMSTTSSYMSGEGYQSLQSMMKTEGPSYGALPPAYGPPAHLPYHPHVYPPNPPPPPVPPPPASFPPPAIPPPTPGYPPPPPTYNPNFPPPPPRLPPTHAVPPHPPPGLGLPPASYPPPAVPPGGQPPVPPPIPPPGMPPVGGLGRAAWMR

First: N#Cc1cnc2c(c1)ncn2[C@H]1CCC[C@@H](Nc2ncc(C#N)c(-c3cnn(CCN4CCOCC4)c3)n2)C1 [Example 60, 3-((1S,3R)-3-((5-Cyano-4-(1-(2-morpholinoethyl)-1H-pyrazol-4-yl)pyrimidin-2-yl)amino)cyclohexyl)-3H-imidazo[4,5-b]pyridine-6-carbonitrile]
Second: N#Cc1cnc2c(c1)ncn2[C@H]1CCC[C@@H](Nc2ncc(C#N)c(-c3cnn(CCO)c3)n2)C1 [Example 68, 3-((1S,3R)-3-((5-Cyano-4-(1-(2-hydroxyethyl)-1H-pyrazol-4-yl)pyrimidin-2-yl)amino)cyclohexyl)-3H-imidazo[4,5-b]pyridine-6-carbonitrile]
The IC50 of the first is higher: 0.05 to 0.5 µM for the first, < 0.05 µM for the second.

Cn1cnc(-c2nc(N[C@@H]3CCC[C@H](n4cnc5cc(C#N)cnc54)C3)ncc2C#N)c1 [Example 61, 3-((1S,3R)-3-((5-Cyano-4-(1-methyl-1H-imidazol-4-yl)pyrimidin-2-yl)amino)cyclohexyl)-3H-imidazo[4,5-b]pyridine-6-carbonitrile] and Cn1cc(-c2nc(N[C@@H]3CCC[C@H](n4cnc5cc(C#N)cnc54)C3)ncc2C#N)cn1 [Example 64, 3-((1S,3R)-3-((5-Cyano-4-(1-methyl-1H-pyrazol-4-yl)pyrimidin-2-yl)amino)cyclohexyl)-3H-imidazo[4,5-b]pyridine-6-carbonitrile] cannot be ordered by IC50: < 0.05 µM for the first, < 0.05 µM for the second.

N#Cc1cnc2c(c1)ncn2[C@H]1CCC[C@@H](Nc2ncc(C#N)c(-c3cnn(CC(F)(F)F)c3)n2)C1 [Example 62, 3-((1S,3R)-3-((5-Cyano-4-(1-(2,2,2-trifluoroethyl)-1H-pyrazol-4-yl)pyrimidin-2-yl)amino)cyclohexyl)-3H-imidazo[4,5-b]pyridine-6-carbonitrile] and CCn1cc(-c2nc(N[C@@H]3CCC[C@H](n4cnc5cc(C#N)cnc54)C3)ncc2C#N)cn1 [Example 73, 3-((1S,3R)-3-((5-Cyano-4-(1-ethyl-1H-pyrazol-4-yl)pyrimidin-2-yl)amino)cyclohexyl)-3H-imidazo[4,5-b]pyridine-6-carbonitrile] cannot be ordered by IC50: < 0.05 µM for the first, < 0.05 µM for the second.

N#Cc1cnc2c(c1)ncn2[C@H]1CCC[C@@H](Nc2ncc(C#N)c(-c3cnn(C4CCOCC4)c3)n2)C1 [Example 63, 3-((1S,3R)-3-((5-Cyano-4-(1-(tetrahydro-2H-pyran-4-yl)-1H-pyrazol-4-yl)pyrimidin-2-yl)amino)cyclohexyl)-3H-imidazo[4,5-b]pyridine-6-carbonitrile] and N#Cc1cnc2c(c1)ncn2[C@H]1CCC[C@@H](Nc2ncc(C#N)c(-c3cnn(C4CC4)c3)n2)C1 [Example 71, 3-((1S,3R)-3-((5-Cyano-4-(1-cyclopropyl-1H-pyrazol-4-yl)pyrimidin-2-yl)amino)cyclohexyl)-3H-imidazo[4,5-b]pyridine-6-carbonitrile] cannot be ordered by IC50: < 0.05 µM for the first, < 0.05 µM for the second.

N#Cc1cnc2c(c1)ncn2[C@H]1CCC[C@@H](Nc2ncc(C#N)c(-c3cnn(-c4ccccc4)c3)n2)C1 [Example 65, 3-((1S,3R)-3-((5-Cyano-4-(1-phenyl-1H-pyrazol-4-yl)pyrimidin-2-yl)amino)cyclohexyl)-3H-imidazo[4,5-b]pyridine-6-carbonitrile] and CC(C)n1cc(-c2nc(N[C@@H]3CCC[C@H](n4cnc5cc(C#N)cnc54)C3)ncc2C#N)cn1 [Example 72, 3-((1S,3R)-3-((5-Cyano-4-(1-isopropyl-1H-pyrazol-4-yl)pyrimidin-2-yl)amino)cyclohexyl)-3H-imidazo[4,5-b]pyridine-6-carbonitrile] cannot be ordered by IC50: < 0.05 µM for the first, < 0.05 µM for the second.

N#Cc1cnc2c(c1)ncn2[C@H]1CCC[C@@H](Nc2ncc(C#N)c(-c3cnn(C4COC4)c3)n2)C1 [Example 66, 3-((1S,3R)-3-((5-Cyano-4-(1-(oxetan-3-yl)-1H-pyrazol-4-yl)pyrimidin-2-yl)amino)cyclohexyl)-3H-imidazo[4,5-b]pyridine-6-carbonitrile] and N#Cc1cnc2c(c1)ncn2[C@H]1CCC[C@@H](Nc2ncc(C#N)c(-c3cnn(CC4CC4)c3)n2)C1 [Example 69, 3-((1S,3R)-3-((5-Cyano-4-(1-(cyclopropylmethyl)-1H-pyrazol-4-yl)pyrimidin-2-yl)amino)cyclohexyl)-3H-imidazo[4,5-b]pyridine-6-carbonitrile] cannot be ordered by IC50: < 0.05 µM for the first, < 0.05 µM for the second.

CC(O)Cn1cc(-c2nc(N[C@@H]3CCC[C@H](n4cnc5cc(C#N)cnc54)C3)ncc2C#N)cn1 (stereo partly drawn) [Example 67, 3-((1S,3R)-3-((5-Cyano-4-(1-(2-hydroxypropyl)-1H-pyrazol-4-yl)pyrimidin-2-yl)amino)cyclohexyl)-3H-imidazo[4,5-b]pyridine-6-carbonitrile] and N#Cc1cnc2c(c1)ncn2[C@H]1CCC[C@@H](Nc2ncc(C#N)c(-c3cnn(CCF)c3)n2)C1 [Example 70, 3-((1S,3R)-3-((5-Cyano-4-(1-(2-fluoroethyl)-1H-pyrazol-4-yl)pyrimidin-2-yl)amino)cyclohexyl)-3H-imidazo[4,5-b]pyridine-6-carbonitrile] cannot be ordered by IC50: < 0.05 µM for the first, < 0.05 µM for the second.

CC(=O)N1CCN(c2cnc3c(c2)ncn3[C@H]2CCC[C@@H](Nc3ncc(C#N)c(-c4cnn(CC(F)F)c4)n3)C2)CC1 [Example 74, 2-(((1R,3S)-3-(6-(4-Acetylpiperazin-1-yl)-3H-imidazo[4,5-b]pyridin-3-yl)cyclohexyl)amino)-4-(1-(2,2-difluoroethyl)-1H-pyrazol-4-yl)pyrimidine-5-carbonitrile] and CN1CCN(c2cnc3c(c2)ncn3[C@H]2CCC[C@@H](Nc3ncc(C#N)c(-c4cnn(CC(F)F)c4)n3)C2)CC1 [Example 75, 4-(1-(2,2-Difluoroethyl)-1H-pyrazol-4-yl)-2-(((1R,3S)-3-(6-(4-methylpiperazin-1-yl)-3H-imidazo[4,5-b]pyridin-3-yl)cyclohexyl)amino)pyrimidine-5-carbonitrile] cannot be ordered by IC50: < 0.05 µM for the first, < 0.05 µM for the second.

N#Cc1cnc(N[C@@H]2CCC[C@H](n3cnc4cc(N5CCOCC5)cnc43)C2)nc1-c1cnn(CC(F)F)c1 [Example 76, 4-(1-(2,2-Difluoroethyl)-1H-pyrazol-4-yl)-2-(((1R,3S)-3-(6-morpholino-3H-imidazo[4,5-b]pyridin-3-yl)cyclohexyl)amino)pyrimidine-5-carbonitrile] and FC(F)Cn1cc(-c2nc(N[C@@H]3CCC[C@H](n4cnc5cc(N6CCCC6)cnc54)C3)ncc2C(F)(F)F)cn1 [Example 83, 4-(1-(2,2-Difluoroethyl)-1H-pyrazol-4-yl)-N-((1R,3S)-3-(6-(pyrrolidin-1-yl)-3H-imidazo[4,5-b]pyridin-3-yl)cyclohexyl)-5-(trifluoromethyl)pyrimidin-2-amine] cannot be ordered by IC50: < 0.05 µM for the first, < 0.05 µM for the second.

First: Cc1ccncc1-c1cnc2c(c1)ncn2[C@H]1CCC[C@@H](Nc2ncc(C#N)c(-c3cnn(CC(F)F)c3)n2)C1 [Example 77, 4-(1-(2,2-Difluoroethyl)-1H-pyrazol-4-yl)-2-(((1R,3S)-3-(6-(4-methylpyridin-3-yl)-3H-imidazo [4,5-b]pyridin-3-yl)cyclohexyl)amino)pyrimidine-5-carbonitrile]
Second: Cc1nccc2c1ncn2[C@H]1CCC[C@@H](Nc2ncc(C#N)c(-c3cnn(CC(F)F)c3)n2)C1 [Example 85, 4-(1-(2,2-Difluoroethyl)-1H-pyrazol-4-yl)-2-(((1R,3S)-3-(4-methyl-1H-imidazo[4,5-c]pyridin-1-yl)cyclohexyl)amino)pyrimidine-5-carbonitrile]
The IC50 of the first is higher: 0.05 to 0.5 µM for the first, < 0.05 µM for the second. The second is the more potent here.

C=C(C)c1cnc2c(c1)ncn2[C@H]1CCC[C@@H](Nc2ncc(C(F)(F)F)c(-c3cnn(CC(F)F)c3)n2)C1 [Example 78, 4-(1-(2,2-Difluoroethyl)-1H-pyrazol-4-yl)-N-((1R,3S)-3-(6-(prop-1-en-2-yl)-3H-imidazo[4,5-b]pyridin-3-yl)cyclohexyl)-5-(trifluoromethyl)pyrimidin-2-amine] and CN(C)c1cnc2c(c1)ncn2[C@H]1CCC[C@@H](Nc2ncc(C(F)(F)F)c(-c3cnn(CC(F)F)c3)n2)C1 [Example 84, 3-((1S,3R)-3-((4-(1-(2,2-Difluoroethyl)-1H-pyrazol-4-yl)-5-(trifluoromethyl)pyrimidin-2-yl)amino)cyclohexyl)-N,N-dimethyl-3H-imidazo[4,5-b]pyridin-6-amine] cannot be ordered by IC50: < 0.05 µM for the first, < 0.05 µM for the second.

FC(F)Cn1cc(-c2nc(N[C@@H]3CCC[C@H](n4cnc5cc(C6CC6)cnc54)C3)ncc2C(F)(F)F)cn1 [Example 79, N-((1R,3S)-3-(6-Cyclopropyl-3H-imidazo[4,5-b]pyridin-3-yl)cyclohexyl)-4-(1-(2,2-difluoroethyl)-1H-pyrazol-4-yl)-5-(trifluoromethyl)pyrimidin-2-amine] and Cn1cc(-c2cnc3c(c2)ncn3[C@H]2CCC[C@@H](Nc3ncc(C(F)(F)F)c(-c4cnn(CC(F)F)c4)n3)C2)cn1 [Example 81, 4-(1-(2,2-Difluoroethyl)-1H-pyrazol-4-yl)-N-((1R,3S)-3-(6-(1-methyl-1H-pyrazol-4-yl)-3H-imidazo[4,5-b]pyridin-3-yl)cyclohexyl)-5-(trifluoromethyl)pyrimidin-2-amine] cannot be ordered by IC50: < 0.05 µM for the first, < 0.05 µM for the second.

FC(F)Cn1cc(-c2nc(N[C@@H]3CCC[C@H](n4cnc5cc(-c6cn[nH]c6)cnc54)C3)ncc2C(F)(F)F)cn1 [Example 80, N-((1R,3S)-3-(6-(1H-Pyrazol-4-yl)-3H-imidazo[4,5-b]pyridin-3-yl)cyclohexyl)-4-(1-(2,2-difluoroethyl)-1H-pyrazol-4-yl)-5-(trifluoromethyl)pyrimidin-2-amine] and FC(F)Cn1cc(-c2nc(N[C@@H]3CCC[C@H](n4cnc5cc(-c6cccnc6)cnc54)C3)ncc2C(F)(F)F)cn1 [Example 82, 4-(1-(2,2-Difluoroethyl)-1H-pyrazol-4-yl)-N-((1R,3S)-3-(6-(pyridin-3-yl)-3H-imidazo[4,5-b]pyridin-3-yl)cyclohexyl)-5-(trifluoromethyl)pyrimidin-2-amine] cannot be ordered by IC50: < 0.05 µM for the first, < 0.05 µM for the second.

In the case of N#Cc1ccc2c(c1)ncn2[C@H]1CCC[C@@H](Nc2ncc(C#N)c(-c3cnn(CC(F)F)c3)n2)C1 [Example 86, 1-((1S,3R)-3-((5-Cyano-4-(1-(2,2-difluoroethyl)-1H-pyrazol-4-yl)pyrimidin-2-yl)amino)cyclohexyl)-1H-benzo[d]imidazole-5-carbonitrile], the IC50 is reported as < 0.05 µM.
